Results from patent US20110086813A1, “COMPOUNDS FOR TREATING BACTERIAL INFECTIONS” (priority 2008, published 2011).

Legend:
[1] = target: T1, Gram Negative E. coli RelA (Escherichia coli, UniProt P0AG20); experiment: In vitro (p)ppGpp accumulation, RelA synthetic activity; type: biochemical; settings: figure only
T1 construct: made in house; host or cells: deltaRelA E. coli cells, IPTG induced
Protocol: (§1) Starters of deltaRelA E. coli cells, expressing one of the following proteins (RelA, RelA638 or Relseq385) in trans, were grown overnight at 37° C. The next day, the starters were diluted 1:50 in 400 ml LBamp and the cells have continued to grow at 37° C. until they reached O.D600=˜0.6. Then, the cells were added with IPTG (1 mg/ml) and the cells were grown at the same conditions for additional 2-3 h. After that the cells were harvested for 10 min at 4000 rpm and the pellet was frozen at −80° C.
(§2) • Lysis of the pellet using “Lysis Buffer” containing Lysozyme (3 mg/ml) and ½ pill of Complete (EDTA-free). • Sonication on ice for 3.5 min. • Centrifuge the cells for 10 min at 10000 rpm. • Mix the supernatant with Ni-NTA bids for 1 h at 4° C. • Load the bids on a column and wash it with “Wash Buffer”. • Elute the protein using “Elution Buffer”.
(§3) The elution fractions were run on 12% Acryl/Bis gel and the fractions containing the most protein were taken to dialysis (two times overnight at 4° C.). After dialysis the concentration of the protein was determined using Bradford Reagent (O.D595).
(§4) In Vitro (p)ppGpp Accumulation:
(§5) 2.5 mM GTP, 20 mM ATP, 200 mM Tris HCl pH7.4, 5 mM DTT, 50 mM MgCl2
(§6) 50 mM KCl, 135 mM (NH4)2SO4, α-^32P GTP (0.1 μl per reaction), DDW
(§7) Once the buffer is added together with 1 μg of protein, 0-10 mM of inhibitor and 30 μg of ribosomes (in a total volume of 20 μl) the following reaction occurs: GTP/GDP+ATP→(p)ppGpp.
(§8) The reactions are incubated at room temperature for a period of 10-90 minutes. Then, the reactions are stopped by the addition of 5 μl of Formic acid. Once the reactions were stopped, they were placed on ice until 5 μl of each reaction were loaded on Cellulose PEI (Merck) and ran for 2 hours in 1.5M KH2PO4. The PEI was read, using image reader-1000 V1.8 and the data was analyzed by TINA 2.0 software.

[2] = target: T2, Relseq from Gram Positive Streptococcus equisimils (Streptococcus dysgalactiae subsp. equisimilis, UniProt Q54089); experiment: In vitro (p)ppGpp accumulation, Relseq synthetic activity; type: biochemical; settings: figure only
T2 construct: made in house; host or cells: deltaRelA E. coli cells, IPTG induced
T2 sequence (Q54089 1-385): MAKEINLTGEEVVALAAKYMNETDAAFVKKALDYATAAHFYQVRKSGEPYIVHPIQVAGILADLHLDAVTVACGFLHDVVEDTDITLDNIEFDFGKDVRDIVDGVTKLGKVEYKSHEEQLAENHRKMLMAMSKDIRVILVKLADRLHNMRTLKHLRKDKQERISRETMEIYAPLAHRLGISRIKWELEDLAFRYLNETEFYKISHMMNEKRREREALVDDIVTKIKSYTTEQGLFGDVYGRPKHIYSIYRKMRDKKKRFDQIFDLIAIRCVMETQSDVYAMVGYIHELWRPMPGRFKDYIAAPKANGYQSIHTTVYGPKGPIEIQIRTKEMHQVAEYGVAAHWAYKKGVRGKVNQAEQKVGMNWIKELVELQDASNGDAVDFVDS
Protocol: as §1, §2, §3, §4, §5, §6, §7, §8

[3] = presented as pmol (p)ppGpp per mg RelA vs. compound concentration, 0-10 mM inhibitor
[4] = separate experiment, presented as % inhibition vs. compound concentration
[5] = presented as % inhibition vs. compound concentration

T1 sequence (P0AG20 whole entry): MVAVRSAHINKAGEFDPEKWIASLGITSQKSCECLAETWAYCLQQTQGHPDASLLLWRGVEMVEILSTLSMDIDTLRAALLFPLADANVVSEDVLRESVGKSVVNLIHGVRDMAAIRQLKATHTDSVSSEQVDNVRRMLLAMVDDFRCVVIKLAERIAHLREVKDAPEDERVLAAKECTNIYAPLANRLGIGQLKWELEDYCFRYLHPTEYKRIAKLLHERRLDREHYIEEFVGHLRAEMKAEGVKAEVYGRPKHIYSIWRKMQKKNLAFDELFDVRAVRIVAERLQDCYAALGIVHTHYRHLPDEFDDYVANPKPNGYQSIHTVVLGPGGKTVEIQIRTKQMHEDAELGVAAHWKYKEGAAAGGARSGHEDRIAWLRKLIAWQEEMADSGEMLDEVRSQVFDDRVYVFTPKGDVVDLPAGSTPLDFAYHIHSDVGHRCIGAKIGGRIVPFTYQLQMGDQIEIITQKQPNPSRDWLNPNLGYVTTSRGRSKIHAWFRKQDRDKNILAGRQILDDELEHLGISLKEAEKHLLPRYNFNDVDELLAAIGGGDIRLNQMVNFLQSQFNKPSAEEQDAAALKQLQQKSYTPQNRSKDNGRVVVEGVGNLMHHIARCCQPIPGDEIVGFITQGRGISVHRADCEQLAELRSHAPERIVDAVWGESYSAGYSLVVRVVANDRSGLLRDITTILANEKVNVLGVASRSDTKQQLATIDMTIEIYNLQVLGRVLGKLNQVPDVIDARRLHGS

SMILES	inhibitory effect on RelA synthetic activity in vitro [1, 3]	inhibitory effect on RelA synthetic activity in vitro [1, 4]	inhibitory effect on Relseq synthetic activity in vitro [2, 5]	inhibitory effect on Relseq synthetic activity in vitro ([2]; presented as pmol (p)ppGpp per mg Relseq vs. compound concentration)
Nc1nc2c(ncn2[C@@H]2O[C@H](COP(=O)(O)CP(=O)(O)O)C(O)C2O)c(=O)[nH]1 (stereo partly drawn) [Compound A1]	inhibitory effect	inhibitory effect	inhibitory effect	
Nc1nc2c(ncn2[C@@H]2O[C@H](COP(=O)(O)CP(=O)(O)O)C(OP(=O)(O)CP(=O)(O)O)C2O)c(=O)[nH]1 (stereo partly drawn) [Compound D1c]		inhibitory effect	inhibitory effect	
Nc1nc2c(ncn2[C@@H]2O[C@H](COP(=O)(O)CP(=O)(O)O)C(O)C2OP(=O)(O)CP(=O)(O)O)c(=O)[nH]1 (stereo partly drawn) [Compound D2b]		inhibitory effect	inhibitory effect	
CC(C)C(=O)Nc1nc2c(ncn2C2OC(COP(=O)(O)CP(=O)(O)O)C(O)C2OP(=O)(O)CP(=O)(O)O)c(=O)[nH]1 (stereo not drawn) [Compound D2c]		inhibitory effect		
Nc1nc2c(ncn2[C@H]2CC(OP(=O)(O)CP(=O)(O)O)[C@@H](COP(=O)(O)CP(=O)(O)O)O2)c(=O)[nH]1 (stereo partly drawn) [Compound D3, 5′,3′-O-di-[methylene-(bisphosphonate)]-2′-deoxyguanosine]	inhibitory effect	inhibitory effect	inhibitory effect	inhibitory effect
CC(C)C(=O)Nc1nc2c(ncn2C2OC(COP(=O)(O)CP(=O)(O)O)C(O[Si](C)(C)C(C)(C)C)C2OP(=O)(O)CP(=O)(O)O)c(=O)[nH]1 (stereo not drawn) [Compound D6]	inhibitory effect	inhibitory effect		
CC(C)C(=O)Nc1nc2c(ncn2C2OC(COP(=O)(O)CP(=O)(O)O)C(OP(=O)(O)CP(=O)(O)O)C2O[Si](C)(C)C(C)(C)C)c(=O)[nH]1 (stereo not drawn) [Compound D7]	inhibitory effect	inhibitory effect		
CC(C)C(=O)Nc1nc2c(ncn2C2OC(COP(=O)(O)CP(=O)(O)O)C(OP(=O)(O)CP(=O)(O)O)C2O)c(=O)[nH]1 (stereo not drawn) [Compound D8]	inhibitory effect	inhibitory effect		
CC1(C)OC2C(COP(=O)(O)CP(=O)(O)O)OC(n3cnc4c(=O)[nH]c(N)nc43)C2O1 (stereo not drawn) [Compound E3b]	inhibitory effect	inhibitory effect	inhibitory effect	
